Results reported in US20240366555A1, “SELECTIVE MTORC2 INHIBITOR AND USES THEREOF” (ALIAD BIOPHARMA, priority 2021, published 2024).

Columns and labels:
mTORC1 = biological target: T1, mTORC1 (Homo sapiens, UniProt P42345); assay: In vitro mTORC1 kinase assay (GST-S6K Thr389 phosphorylation, immunoblot); assay type: biochemical
T1 construct: mTORC1 was isolated by co-immunoprecipitation using Flag antibody; made in house; host or cells: HEK 293T transfected with Flag-Raptor
Procedure: In order to investigate the effect on mTORC1 activity of norathyriol, in vitro mTORC1 kinase assay was performed. After introducing Flag-Raptor into a human cell line 293T, mTORC1 was isolated by co-immunoprecipitation using Flag antibody. In addition, the activity of the isolated mTORC1 complex was evaluated by measuring phosphorylation of GST-S6K Thr389, which is a selective substrate of mTORC1, by immunoblot analysis. In the control group in which Flag-Raptor was not introduced, GST-S6K Thr389 phosphorylation was almost not measured. […] Therefore, it was judged that GST-S6K Thr389 phosphorylation measured in the in vitro mTORC1 kinase assay was generated by mTORC1. In order to evaluate the inhibitory effect of norathyriol on mTORC1 activity, norathyriol was pretreated for 15 minutes, and then in vitro mTORC1 kinase assay was carried out.
More specifically, the HEK 293T cells were cultured in a DMEM culture medium in which 10% heat inactivated FBS+1× Glutamax was added. 8×10^5 HEK 293T cells were seeded in a 100 mm culture dish, and then they were cultured for 1 day. After mixing 42 μl Lipofectamine, 21 μl plus reagent, and 21 μg Flag-Raptor plasmid DNA to 1 ml OPTI-MEM, it was shaken at a room temperature for 25 minutes to prepare a transfection DNA mixture. The transfection DNA mixture was slowly treated on the cells drop by drop, and after culturing for 5 hours, the culture medium was replaced with a new culture medium. […] The protein concentration of the cell lysate was determined with BCA protein assay kit (Thermo Fisher Scientific). […] Thr389 phosphorylation of GST-S6K1, which is a substrate of mTORC1, was measured by performing immunoblot analysis using phospho Thr389 p70 S6 kinase antibody (#9205S, Cell Signaling) and GST antibody (#A190-122A, Bethyl Laboratories). […]

Arc protein expression = assay: mGluR-dependent Arc protein expression in cerebral neurons; assay type: cell-based
Procedure: When mGluR is activated in dendritic spines of cerebral neurons, Arc protein is synthesized, and the Arc protein promotes endocytosis of an AMPA receptor to form LTD.
Specifically, DHPG was treated to cerebral neurons, which were obtained by primary culture of white mouse embryo E16 cerebral regions and differentiated for […] (DIV21), for 5 minutes or 10 minutes to activate mGluR. As an Arc antibody, Arc protein (green) and PSD95 (red), which is a marker antibody of postsynaptic density of a synapse, were under
After double immunofluorescent staining of Arc protein with an Arc antidody (green) and PSD95, a marker of postsynaptic density of synapse, with an PSD95 antibody (red), Arc expression in dendritic spines was quantified as the number of Arc+PSD95 double stained puncta per 20 μm neurite length by confocal scanning microscopic scanning.

Pten KO mice [1] = assay: 3-chamber test in Pten KO mice; assay type: in vivo
Procedure: (§1) As Pten KO mice, Ptenf/f_cre/cre KO mice or Ptenf/f_cre/++ Het mice (KD) were obtained by mating Pten floxed/floxed mice and CAMKII-cre mice. DMSO or athyriol was intraperitoneally injected at 5 or 10 mg/kg for 2 weeks from the age of mice of 6 weeks, and a behavioral test was performed in 7 days after administration. Pten floxed/floxed mice were used as littermates of the same age as a normal control group.
3-chamber test is a test to confirm sociability, social cognition, and social sexual preference, and it was tested by composing sessions 1 and 2. The experimental site was consisted of three chambers made of transparent acrylic walls with a small door and each chamber was length 50 cm×width 100 cm×height 50 cm. Through a cylindrical cage, the sense of smell and minimal contact of the test mice to the unfamiliar mouse were allowed. Prior to the test, the test mice were placed in an intermediate chamber and adapted for 5 minutes with both doors closed. The test was performed by dividing into sessions I and II. In the 3-chamber sociability measurement-1 session, an unfamiliar mouse met first was placed in a transparent box located at one end of the three rooms, and an empty transparent box of the same size was placed in the room located at the other side, and the target mouse was placed in the middle room, and then the time searching toward the counterpart within the social interaction zone was measured.
In the 3-chamber sociability measurement-2 session, an unfamiliar met first was placed in a transparent box located at one end of the three rooms, and the mouse met in the session 1 was placed in the same transparent box in the room located at the other side. […] Therefore, it could be confirmed that the sociability disorder occurring in the Pten KO mice was improved to the normal group level by athyriol administration.

Pten KO mice [2] = assay: Passive avoidance test in Pten KO mice; assay type: in vivo; conditions: FIG. 1b
Procedure: as §1
A passive avoidance test was performed as described in Heo et al. (J. Ethnopharmacol. (2009) 122:20-27). After training the avoidance action by strong light three times a day, an electric foot shock (1 mA, 300 g test) was applied for 3 seconds in a dark room at the same time on the next day. After placing white mice in the same room in 24 hours after applying the shock, an avoidance response by light, that is, the time to move from a bright room to a dark room was measured, and it was dataficated for each group. Exactly after 24 hours of adaptation training, the mice were put back into the bright room and the latency time required to enter the dark room was measured for 720 seconds.

| Structure (SMILES) | GST-S6K Thr389 phosphorylation (mTORC1; 20 μM, 40 μM and 80 μM, FIG. 6c) | IC50 (mTORC1; in vitro mTORC1 kinase assay) [µM] | increase of Arc protein synthesis (immunoblot of cell lysate) (Arc protein expression; DHPG-induced, FIG. 12b) | Arc synthesis in dendritic spines (immunofluorescent staining) (Arc protein expression; pretreated for 2 hours before treating DHPG, FIG. 12a) | increase of time of searching the unfamiliar mouse over normal control group, session 2 (Pten KO mice [1]; 10 mg/kg, session 2) [%] | time searching the unfamiliar mouse, session 1 (Pten KO mice [1]; 3-chamber sociability measurement-1 session, FIG. 4) | time of searching the unfamiliar mouse, session 2 (Pten KO mice [1]; 5 or 10 mg/kg, 3-chamber sociability measurement-2 session) | memory ability in passive avoidance test (Pten KO mice [2]; 5 mg/kg) | memory ability in passive avoidance test, level relative to control group (Pten KO mice [2]; 10 mg/kg, % of the control group) [%] |
| --- | --- | --- | --- | --- | --- | --- | --- | --- | --- |
| O=c1c2cc(O)c(O)cc2oc2cc(O)cc(O)c12 [norathyriol, 1,3,6,7-tetrahydroxy-9H-xanthen-9-one] | not reduced at a significant level | > 80 | inhibited in a dose-dependent manner | the increase of Arc synthesis by DHPG was not found | – | – | – | – | – |
| COc1cc(O)c2c(=O)c3cc(O)c(O)cc3oc2c1 [athyriol, 1,6,7-Trihydroxy-3-methoxy-9H-xanthen-9-on] | – | – | – | – | 14 | recovered to the normal control group level in a concentration-dependent manner | increased in a dose-dependent manner | rather more excellent than the control group | 89 |
